Reference: patent publication US11905284B2, “5,7-dihydro-pyrrolo-pyridine derivatives” (PFIZER INC., priority 2016, dated 2024)

Molecular target: T1, Human M4 receptors (Homo sapiens, UniProt P08173)
T1 construct: expressed in transfected cells; host or cells: HEK293 cells with Promega GloSensor cAMP technology, stably expressing hM4
T1 sequence (P08173 1-479): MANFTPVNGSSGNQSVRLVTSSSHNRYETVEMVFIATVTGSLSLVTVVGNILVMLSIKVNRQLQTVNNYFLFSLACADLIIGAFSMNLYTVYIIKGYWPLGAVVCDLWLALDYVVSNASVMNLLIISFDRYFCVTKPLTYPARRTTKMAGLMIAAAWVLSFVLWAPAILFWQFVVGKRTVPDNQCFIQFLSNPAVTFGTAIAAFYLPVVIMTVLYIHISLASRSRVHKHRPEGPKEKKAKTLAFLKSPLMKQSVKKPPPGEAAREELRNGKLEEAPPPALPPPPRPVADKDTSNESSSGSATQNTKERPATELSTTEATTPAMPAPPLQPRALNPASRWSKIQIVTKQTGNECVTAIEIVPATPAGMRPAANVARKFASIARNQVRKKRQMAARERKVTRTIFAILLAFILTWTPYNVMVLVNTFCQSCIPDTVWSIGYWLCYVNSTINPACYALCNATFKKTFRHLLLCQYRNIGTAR
Experiment: M4 PAM cAMP assay (GloSensor)
Type: cell-based
Conditions: for Emax: HEK293, read-out: M4 glosensor EC50 Mean Asymptote Maximum (%)
Method: The M4 PAM binding affinity for the compounds of the present invention was determined utilizing the following biological assay(s):
The M4 cAMP assay was designed to determine the potency and efficacy of muscarinic positive allosteric modulators (PAMs). Human M4 receptors were stably expressed in Human embryonic kidney (HEK293) cells expressed with the Promega GloSensor™ cAMP technology.
HEK293 GloSensor cells expressing hM4 cells were cultured in growth media containing DMEM with 10% FBS, 1% Penicillin/Streptomycin, 500 μg/mL G418, 200 μg/mL Hygomycin B, and 1% Glutamax. […] Plates were incubated at 37 degrees C. and 5% CO2 for use after 24 hours.
Compound Preparation for Agonist Screen:
Each compound was tested at 10 concentrations in duplicate per experiment. Compound plates are spotted with 0.2 μL/well agonist at 400 times the final assay concentration. Positive and negative controls for the compound alone agonist response was 10 μM acetylcholine (Sigma #A2661) and DMSO, respectively. EC20 of acetylcholine was also used to define PAM activities.
Promega GloSensor™ reagent (Promega #E1291) had previously been aliquotted. […] Stock solution was mixed. Culture media in cell plates was discarded, then replaced with 40 μL/well pre-warmed equilibration media, then incubated in the dark at room temperature for 2 hours. During the incubation, stimulation media containing agonist and EC20 acetylcholine was prepared. […] Compounds are now 5 times the final assay concentration. The plate was mixed using a plate agitator. At the end of the 2 hour GloSensor™ incubation, add 10 μL of the CO2-independent media containing agonist, EC20 acetylcholine and isoproterenol to the cell plate. Cell plate was then incubated for 10 minutes at room temperature, and then read using an EnVision plate reader (Perkin Elmer).
Data was exported from the EnVision plate reader. The percent effect for each well was determined using the mean values for the positive and negative controls on each plate for each read, specifically 100*(compound−negative control)/(positive control−negative control). Dose response curves were fitted to the compound percent effect data using a 4-parameter logistic fit model. Data was reported as EC50 and Emax, with the Emax as the maximum asymptote of the fitted dose response curve.

[1] = HEK293 GloSensor cells expressing hM4, with EC20 acetylcholine and isoproterenol, geometric mean of 2-4 determinations unless otherwise indicated

Cc1cc(C)c2c(n1)CN(C(=O)CC1CN(c3cccnc3)C1)C2C (single isomer, unassigned) [Example 15, 2-[1-(Pyridin-3-yl)azetidin-3-yl]-1-(2,4,5-trimethyl-5,7-dihydro-6H-pyrrolo[3,4-b]pyridin-6-yl)ethanone]
M4 glosensor EC50 Mean Asymptote Maximum (%) (Emax = maximum asymptote of fitted dose response curve, HEK293 GloSensor cells expressing hM4, with EC20 acetylcholine and isoproterenol, geometric mean of 2-4 determinations unless otherwise indicated): 106%
EC50 [1]: 28 nM

COc1cc(C)c2c(n1)CN(C(=O)CC1CN(c3cccnc3)C1)C2 [Example 21, 1-(2-methoxy-4-methyl-5,7-dihydro-6H-pyrrolo[3,4-b]pyridin-6-yl)-2-[1-(pyridin-3-yl)azetidin-3-yl]ethanone]
Emax: 86.6%
EC50 [1]: 23.9 nM

COCc1nc2c(c(C)c1Cl)CN(C(=O)CC1CN(c3ccnc(OC(F)F)c3)C1)C2 [Example 52, 1-[3-chloro-2-(methoxymethyl)-4-methyl-5,7-dihydro-6H-pyrrolo[3,4-b]pyridin-6-yl]-2-{1-[2-(difluoromethoxy)pyridin-4-yl]azetidin-3-yl}ethanone]
Emax: 111%
EC50 [1]: 4.68 nM

Cc1cc(C)c2c(n1)CN(C(=O)OC1CN(c3nncs3)C1)C2 [Example 62, 1-(1,3,4-thiadiazol-2-yl)azetidin-3-yl 2,4-dimethyl-5,7-dihydro-6H-pyrrolo[3,4-b]pyridine-6-carboxylate]
Emax: 47%
EC50 [1]: 95.7 nM

COc1nc2c(c(C)c1C)CN(C(=O)CC1CN(c3cncnc3)C1)C2 [Example 29, 1-(2-methoxy-3,4-dimethyl-5,7-dihydro-6H-pyrrolo[3,4-b]pyridin-6-yl)-2-[1-(pyrimidin-5-yl)azetidin-3-yl]ethanone]
Emax: 99.8%
EC50 [1]: 26.1 nM

Cc1cc(C)c2c(n1)CN(C(=O)CC1CN(c3ccc(C(O)C4CC4)cc3)C1)C2 (stereo not drawn) [Example 73, 2-(1-{4-[cyclopropyl(hydroxy)methyl]phenyl}azetidin-3-yl)-1-(2,4-dimethyl-5,7-dihydro-6H-pyrrolo[3,4-b]pyridin-6-yl)ethanone]
Emax: 95.3%
EC50 [1]: 90.5 nM

COCc1nc2c(c(C)c1Cl)CN(C(=O)OC1CN(c3cccnc3)C1)C2 [Example 66, 1-(pyridin-3-yl)azetidin-3-yl 3-chloro-2-(methoxymethyl)-4-methyl-5,7-dihydro-6H-pyrrolo[3,4-b]pyridine-6-carboxylate]
Emax: 163%
EC50 [1]: 52.3 nM

COCc1cc(C)c2c(n1)CN(C(=O)CC1CN(c3cncnc3)C1)C2 [Example 31, 1-[2-(methoxymethyl)-4-methyl-5,7-dihydro-6H-pyrrolo[3,4-b]pyridin-6-yl]-2-[1-(pyrimidin-5-yl)azetidin-3-yl]ethanone]
Emax: 89.3%
EC50 [1]: 17.8 nM

Cc1nc2c(c(C)c1C)CN(C(=O)CC1CN(c3ccnc(C(F)F)c3)C1)C2 [Example 46, 2-{1-[2-(difluoromethyl)pyridin-4-yl]azetidin-3-yl}-1-(2,3,4-trimethyl-5,7-dihydro-6H-pyrrolo[3,4-b]pyridin-6-yl)ethanone]
Emax: 106%
EC50 [1]: 9.53 nM

Cc1c(C(F)F)nc2c(c1C)CN(C(=O)OC1CN(c3ncns3)C1)C2 [Example 63, 1-(1,2,4-thiadiazol-5-yl)azetidin-3-yl 2-(difluoromethyl)-3,4-dimethyl-5,7-dihydro-6H-pyrrolo[3,4-b]pyridine-6-carboxylate]
Emax: 51.8%
EC50 [1]: 42.4 nM

Cc1cc(C(F)F)nc2c1CN(C(=O)CC1CN(c3cncnc3)C1)C2 [Example 34, 1-[2-(difluoromethyl)-4-methyl-5,7-dihydro-6H-pyrrolo[3,4-b]pyridin-6-yl]-2-[1-(pyrimidin-5-yl)azetidin-3-yl]ethanone]
Emax: 86%
EC50 [1]: 18 nM

Cc1cc(C(F)F)nc2c1CN(C(=O)CC1CN(c3ccnc(OC(F)F)c3)C1)C2 [Example 25, 2-{1-[2-(difluoromethoxy)pyridin-4-yl]azetidin-3-yl}-1-[2-(difluoromethyl)-4-methyl-5,7-dihydro-6H-pyrrolo[3,4-b]pyridin-6-yl]ethanone]
Emax: 78.7%
EC50 [1]: 25.7 nM

COCc1cc(C)c2c(n1)CN(C(=O)CC1CN(c3ccnc(OC(F)F)c3)C1)C2 [Example 8, 2-{1-[2-(Difluoromethoxy)pyridin-4-yl]azetidin-3-yl}-1-[2-(methoxymethyl)-4-methyl-5,7-dihydro-6H-pyrrolo[3,4-b]pyridin-6-yl]ethanone]
Emax: 99.1%
EC50 [1]: 22.7 nM

Cc1nc2c(c(C)c1C)CN(C(=O)OC1CN(c3ncns3)C1)C2 [Example 64, 1-(1,2,4-thiadiazol-5-yl)azetidin-3-yl 2,3,4-trimethyl-5,7-dihydro-6H-pyrrolo[3,4-b]pyridine-6-carboxylate]
Emax: 88.5%
EC50 [1]: 40.2 nM

COCc1nc2c(c(C)c1C)CN(C(=O)CC1CN(c3cncnc3)C1)C2 [Example 40, 1-[2-(methoxymethyl)-3,4-dimethyl-5,7-dihydro-6H-pyrrolo[3,4-b]pyridin-6-yl]-2-[1-(pyrimidin-5-yl)azetidin-3-yl]ethanone]
Emax: 97.9%
EC50 [1]: 23.6 nM

COCc1cc(C)c2c(n1)CN(C(=O)CC1CN(c3ccnc(C(F)(F)F)c3)C1)C2 [Example 7, 1-[2-(methoxymethyl)-4-methyl-5,7-dihydro-6H-pyrrolo[3,4-b]pyridin-6-yl]-2-{1-[2-(trifluoromethyl)pyridin-4-yl]azetidin-3-yl}ethanone]
Emax: 99.8%
EC50 [1]: 17.4 nM

Cc1cc(C)c2c(n1)CN(C(=O)CC1CN(c3ccc4nc(C)cn4n3)C1)C2 [Example 43, 1-(2,4-dimethyl-5,7-dihydro-6H-pyrrolo[3,4-b]pyridin-6-yl)-2-[1-(2-methylimidazo[1,2-b]pyridazin-6-yl)azetidin-3-yl]ethanone]
Emax: 88.6%
EC50 [1]: 25.2 nM

Cc1cc(C)c2c(n1)CN(C(=O)C[C@H]1C[C@@H]1c1ccccc1)C2 (racemic) [Example 77, 1-(2,4-dimethyl-5,7-dihydro-6H-pyrrolo[3,4-b]pyridin-6-yl)-2-[trans-2-phenylcyclopropyl]ethanone]
Emax: 176%
EC50 [1]: 2880 nM

COCc1cc(C)c2c(n1)CN(C(=O)CC1CN(c3cccnc3)C1)C2 [Example 27, 1-[2-(methoxymethyl)-4-methyl-5,7-dihydro-6H-pyrrolo[3,4-b]pyridin-6-yl]-2-[1-(pyridin-3-yl)azetidin-3-yl]ethanone]
Emax: 94.4%
EC50 [1]: 16.8 nM

Cc1cc(CO)nc2c1CN(C(=O)CC1CN(c3ccnc(C(F)(F)F)c3)C1)C2 [Example 33, 1-[2-(hydroxymethyl)-4-methyl-5,7-dihydro-6H-pyrrolo[3,4-b]pyridin-6-yl]-2-{1-[2-(trifluoromethyl)pyridin-4-yl]azetidin-3-yl}ethanone]
Emax: 100%
EC50 [1]: 14 nM

Cc1cc(C)c2c(n1)CN(C(=O)CC1CN(c3ccc(CO)cc3)C1)C2 [Example 71, 1-(2,4-dimethyl-5,7-dihydro-6H-pyrrolo[3,4-b]pyridin-6-yl)-2-{1-[4-(hydroxymethyl)phenyl]azetidin-3-yl}ethanone]
Emax: 90.5%
EC50 [1]: 195 nM

Cc1nc2c(c(C)c1C)CN(C(=O)CC1CN(c3ccncn3)C1)C2 [Example 35, 2-[1-(pyrimidin-4-yl)azetidin-3-yl]-1-(2,3,4-trimethyl-5,7-dihydro-6H-pyrrolo[3,4-b]pyridin-6-yl)ethanone]
Emax: 87.9%
EC50 [1]: 2.56 nM

COCc1nc2c(c(C)c1Cl)CN(C(=O)CC1CN(c3cccnc3)C1)C2 [Example 48, 1-[3-chloro-2-(methoxymethyl)-4-methyl-5,7-dihydro-6H-pyrrolo[3,4-b]pyridin-6-yl]-2-[1-(pyridin-3-yl)azetidin-3-yl]ethanone]
Emax: 105%
EC50 [1]: 2.99 nM

Cc1cc(C)c2c(n1)CN(C(=O)CC1CN(c3ccc(C4CC4)cc3)C1)C2 [Example 72, 2-[1-(4-cyclopropylphenyl)azetidin-3-yl]-1-(2,4-dimethyl-5,7-dihydro-6H-pyrrolo[3,4-b]pyridin-6-yl)ethanone]
Emax: 90.6%
EC50 [1]: 537 nM
